According to US20150079105A1, “TREATMENT OF ACUTE INFLAMMATION IN THE RESPIRATORY TRACT” (UCL Business PLC, priority 2012, published 2015):
“Also recorded” adds a separate entry of the source.

What was measured:
[1] = test system: TNF, IL-6, CXCL1, CXCL2, CCL2, CCL7; assay: Cytokine and chemokine protein levels in lung homogenates of LPS challenged mice (Luminex bead array, ELISA); assay type: in vivo; conditions: 5 mg/kg i.p. 30 min after LPS, 3 h
Description: FIG. 8. Mice were killed three hours after LPS (125 μg/kg i.n.) or saline challenge with or without the PAR1 antagonist RWJ-58259 (5 mg/kg) dosed i.p. after 30 min. Lungs were removed and homogenized. Levels of TNF (A), IL-6 (B) CXCL1 (C), and CXCL2 (D) protein were measured in lung homogenates using a Luminex bead array. Protein levels of CCL2 (H) and CCL7 (I) were measured from lung homogenates by ELISA. Mean and sem values of n=5 per group are shown. Data were analysed by one way ANOVA with Newman-Keuls post hoc test: ***p<0.001, **p<0.01, *p<0.05. […]
Cytokine and chemokine levels were measured by ELISA.
In order to confirm the LDA analysis of mRNA expression, the level of protein in lung homogenates was measured.

[2] = test system: S. pneumoniae; assay: S. pneumoniae challenge of mice (bacteria-induced ALI and host defense); assay type: in vivo; conditions: 5 mg/kg i.p. after 30 min
Description: FIG. 4. Mice were killed three hours after inoculation with S. pneumoniae (serotype 19, 50 μl/mouse, 5×10^6 CFU/mouse i.n.) with and without the PAR1 antagonist RWJ-58259 (5 mg/kg) dosed therapeutically i.p. after 30 min. Lungs were lavaged (1.5 ml PBS total) and total BAL fluid leukocytes (a) and neutrophils (b) were quantified. S. pneumoniae was recovered from lung homogenates and individual colonies counted (c). Panels show mean values for n=5/group from two separate experiments. Data were analysed by one way ANOVA with Neuman-Keuls Post Hoc test: ***p<0.0001, *p<0.05.
FIG. 5. Mice were killed three hours after inoculation with S. pneumoniae (serotype 2, clinical isolate D39, 50 μl/mouse, 5×10^6 CFU/mouse i.n.) with and without the PAR1 antagonist RWJ-58259 (5 mg/kg) dosed therapeutically i.p. after 30 min. Lungs were lavaged (1.5 ml PBS total) and total BAL fluid leukocytes (A), macrophages (B) and neutrophils (C) were quantified. Bronchoalveolar lavage fluid was collected and levels of thrombin-anti-thrombin (TAT) and serum albumin were quantified by ELISA (D and E). Panels show mean values for n=5/group from two separate experiments. Data were analysed by one way ANOVA with Neuman-Keuls Post Hoc test: ***p<0.0001, *p<0.05.
FIG. 6. Mice were killed three hours after inoculation with S. pneumoniae (serotype 2, clinical isolate D39, 50 μl/mouse, 5×10^6 CFU/mouse i.n.) with and without the PAR1 antagonist RWJ-58259 (5 mg/kg) dosed therapeutically i.p. after 30 min. Lungs were lavaged (1.5 ml PBS total) and bacterial colony forming units (cfu) counted after 3 h (A) and 24 h (B). Bacterial invasive disease was measured by cfu in the lung (C) and spleen (D) after 24 h. Data were analysed by one way ANOVA with Neuman-Keuls Post Hoc test: n.s. not significant. […]
In order to examine the influence of PAR1 during host defense and in a model of bacteria-induced ALI, mice were challenged with S. pneumoniae (5×10^6 CFU/mouse, i.n.), which is the most common infectious agent responsible for ALI. Mice were inoculated with 50 μl S. pneumoniae (serotype 19, 5×10^6 CFU/mouse i.n.). 3 hours later, animals were sacrificed (urethane i.p. […]), endotracheally cannulated and bronchoalveolar lavage performed (1.5 ml, PBS). Total and differential counts were quantified following cytospin and albumin levels measured by ELISA (Bethyl Laboratories Inc, USA).
PAR1 antagonism was also found to decrease the number of BAL macrophages (FIG. 5b). Bronchoalveolar lavage fluid was collected and levels of thrombin-anti-thrombin (TAT) and serum albumin were quantified by ELISA (FIG. 4d, e). […] Panels show mean values for n=5/group from two separate experiments. Data were analysed by one way ANOVA with Neuman-Keuls Post Hoc test: ***p<0.0001, *p<0.05. […]

[3] = serotype 2, D39, after 24 hours
[4] = serotype 19, 5×10^6 CFU/mouse i.n., 3 h

Question: How did the “CCL2 protein level in lung homogenates” value [1] turn out when `NCC[C@H](NC(=O)[C@H](Cc1ccc(F)c(F)c1)NC(=O)Nc1ccc2c(CN3CCCC3)nn(Cc3c(Cl)cccc3Cl)c2c1)C(=O)NCc1ccccc1` [RWJ-58259] was run?
Answer: Its value is “decreased”.

Question: What about the “CCL7 protein level in lung homogenates” value [1] of the same molecule?
Answer: The value was “decreased”.

Question: And the “CXCL1 protein level in lung homogenates” value ([1]; listed as PAR1 antagonist)?
Answer: The value was “unaffected; also recorded: not affected”.

Question: And the “CXCL2 protein level in lung homogenates” value ([1]; listed as PAR1 antagonist)?
Answer: The value was “unaffected; also recorded: not affected”.

Question: What about the “IL-6 protein level in lung homogenates” value ([1]; listed as PAR1 antagonist) of the same molecule?
Answer: The value was “did not attenuate; also recorded: not affected”.

Question: And the “TNF protein level in lung homogenates” value ([1]; listed as PAR1 antagonist)?
Answer: Its value is “did not attenuate; also recorded: not affected”.

Question: What about the “PAR1 mediated disruption of the alveolar-capillary barrier (TAT and serum albumin in BAL fluid by ELISA)” value ([2]; serotype 2, D39, 3 h) of the same molecule?
Answer: The value was “reduce”.

Question: And the “number of BAL macrophages” value ([2]; serotype 2, D39, 3 h)?
Answer: Its value is “decrease”.

Question: What about the “S. pneumoniae colony counts recovered from BALF” value ([2]; serotype 2, D39, 24 hours) of the same molecule?
Answer: Its value is “unaffected”.

Question: And the “bacterial invasive disease, cfu in the lung” value [2, 3]?
Answer: Its value is “unaffected”.

Question: And the “bacterial invasive disease, cfu in the spleen” value [2, 3]?
Answer: Its value is “unaffected”.

Question: What about the “S. pneumoniae colony counts recovered from BALF” value ([2]; serotype 2, D39, after three hours) of the same molecule?
Answer: The value was “unaffected”.

Question: And the “neutrophil accumulation (BAL fluid)” value [2, 4]?
Answer: The value was “reduced”.

Question: And the “total cellular infiltration (BAL fluid leukocytes)” value [2, 4]?
Answer: Its value is “reduced”.

Question: And the “S. pneumoniae colony counts recovered from whole lung (host defense)” value ([2]; serotype 19, 3 h)?
Answer: Its value is “unaffected”.

Question: What about the “BAL fluid serum albumin following S. pneumoniae challenge” value ([2]; serotype not stated, 3 h) of the same molecule?
Answer: Its value is “decreased”.
